Consider 31 molecules from US12391675B2, “NLRP3 modulators” (INNATE TUMOR IMMUNITY, INC., priority 2019, dated 2025).

Broadly, the pEC50 is the EC50 on a negative log10 scale, so that one unit is a factor of ten. High values mean a small EC50, low ones a large EC50.

pEC50: −log10 of the molar value.

This assay deals with T1, NLRP3 (Homo sapiens, UniProt Q96P20).
T1 construct: host or cells: PMA-differentiated THP-1 cells
Put plainly: Measurement of IL-1β production in PMA-differentiated THP-1 cells (NLRP3 hIL1B EC50). In kind it is cell-based. The protocol: Measurement of IL-1β Production in PMA-Differentiated THP-1 Cells
THP-1 cells were purchased from the American Type Culture Collection and sub-cultured according to instructions from the supplier. Prior to experiments, cells were cultured in RPMI 1640 containing 10% heat inactivated FBS, penicillin (100 units/ml) and streptomycin (100 μg/ml), and maintained in log phase prior to experimental setup. Prior to the experiment THP-1 were treated with PMA (Phorbol 12-myristate 13-acetate) (10 μg/ml) for 24 hours. The day of the experiment the media was removed and attaching cells were treated with trypsin for 2 minutes, cells were then collected, washed with PBS (phosphate buffer saline), spin down, resuspended in 2% heat inactivated FBS with RPMI at a concentration of 1×10^6 cells/ml, and 100 μl was plated in a 96 well plate. Compounds were dissolved in dimethyl sulfoxide (DMSO) and added to the culture medium to achieve desired concentration (e.g. 100, 30, 10, 3, 1, 0.3 or 0.1 μM). Cells were incubated with compounds for 4 hours. Cell free supernatant was collected and the production of IL-1β was evaluated by ELISA. A vehicle only control was run concurrently with each experiment. Final DMSO concentration was 1%.
Measurement of IL-1β Production in PMA-Differentiated THP-1 Cells (Alternative Procedure)
THP-1 cells were purchased from the American Type Culture Collection and sub-cultured according to instructions from the supplier. Prior to experiments, cells were cultured in RPMI 1640 containing 10% heat inactivated FBS, penicillin (100 units/ml), streptomycin (100 μg/ml), HEPES (10 mM) and sodium pyruvate (1 mM) and maintained in log phase prior to experimental setup. Prior to the experiment, THP-1 cells were treated with PMA (Phorbol 12-myristate 13-acetate) (20 μg/ml) overnight. The day of the experiment, the media was removed and attached cells were treated with trypsin for 2 minutes, cells were then collected, washed with PBS (phosphate buffer saline), pelleted by centrifugation and resuspended in 2% heat inactivated FBS with RPMI at a concentration of 50,000 cells/well in a 384 well plate. Cell free supernatant was collected and the production of IL-1β was evaluated by ELISA. Compounds were dissolved in dimethyl sulfoxide (DMSO) and added to the culture medium to achieve desired concentration (e.g. 100, 30, 10, 3, 1, 0.3 or 0.1 μM). Cells were incubated with compounds for 2 hours. A vehicle only control was run concurrently with each experiment. Final DMSO concentration was 1%.
Measurement of IL-1β Production—hTRF Protocol (Second Alternative Procedure)
Serial dilutions of compounds in DMSO were added to low volume 384 well plates at 100 nl/well using an ECHO 550 acoustic dispenser (Labcyte) to achieve final starting concentration of 10 μM in assay.
THP-1 cells in RPMI (Gibco, 11875) media with 10% FBS at a density of 1×10^6 cell/ml in a T175 flask were treated with a final concentration of phorbol 12-myristate 13-acetate (PMA) (Sigma, P1585) of 50 ng/ml overnight at 37° C. at 5% CO2 for differentiation. Cells were harvested the next day after rinsing well wth dPBS using 0.5% trypsin. A cell solution was prepared of 1×10^6 cells/ml for 50,000 cells in 50 μl/well in RPMI media with 2% FBS. Cells were plated using a multichannel pipette onto the compound dilutions in Greiner, 384 well, black clear bottom tissue culture treated plates (781090). The plates were incubated in 37° C. incubator at 5% CO2 for 2 hours.
After the 2 hour incubation, the cell plates were spun in the centrifuge for 5 minutes at 1200 rpm. Using the Felix (CyBio), 8 μl of the supernatant was transferred to 384 well, low volume, white proxy plates. (Perkin Elmer, 6008230). A human IL1beta hTRF kit was used to analyze the supernatant (CISBIO, 62HIL1BPEG). The kit instructions were followed for preparing the IL1Beta standard curve and then the antibodies from the kit were diluted 1:40 rather than 1:20 as kit instructed. […]

T1 sequence (Q96P20 whole entry): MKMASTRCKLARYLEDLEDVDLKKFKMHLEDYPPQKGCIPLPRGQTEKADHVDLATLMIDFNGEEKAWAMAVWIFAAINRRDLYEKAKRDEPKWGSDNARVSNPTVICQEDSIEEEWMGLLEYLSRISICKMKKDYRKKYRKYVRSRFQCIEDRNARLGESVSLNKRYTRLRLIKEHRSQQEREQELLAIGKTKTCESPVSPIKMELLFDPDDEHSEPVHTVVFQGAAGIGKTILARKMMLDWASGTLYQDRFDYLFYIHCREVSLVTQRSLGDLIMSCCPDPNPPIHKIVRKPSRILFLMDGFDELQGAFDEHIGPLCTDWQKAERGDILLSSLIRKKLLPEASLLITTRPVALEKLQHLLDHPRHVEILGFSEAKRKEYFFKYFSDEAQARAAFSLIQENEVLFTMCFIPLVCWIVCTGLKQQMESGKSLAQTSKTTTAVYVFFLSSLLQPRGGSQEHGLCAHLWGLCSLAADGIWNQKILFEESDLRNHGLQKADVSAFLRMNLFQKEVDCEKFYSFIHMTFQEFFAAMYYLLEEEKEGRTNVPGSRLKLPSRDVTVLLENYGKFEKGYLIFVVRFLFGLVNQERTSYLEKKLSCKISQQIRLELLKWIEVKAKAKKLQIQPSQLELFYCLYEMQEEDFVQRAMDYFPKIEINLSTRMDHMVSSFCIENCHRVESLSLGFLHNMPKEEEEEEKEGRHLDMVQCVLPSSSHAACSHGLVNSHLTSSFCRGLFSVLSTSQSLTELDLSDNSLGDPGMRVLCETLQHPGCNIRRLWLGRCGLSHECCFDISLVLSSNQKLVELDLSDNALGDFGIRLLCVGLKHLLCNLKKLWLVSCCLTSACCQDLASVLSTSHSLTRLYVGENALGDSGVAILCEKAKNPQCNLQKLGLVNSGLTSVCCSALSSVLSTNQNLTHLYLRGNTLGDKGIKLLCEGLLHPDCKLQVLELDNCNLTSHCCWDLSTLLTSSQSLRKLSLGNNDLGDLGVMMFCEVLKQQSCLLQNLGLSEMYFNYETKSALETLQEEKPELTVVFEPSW

In turn, `Nc1nc(N[C@@H]2C[C@H]3CC[C@@H]2O3)c2ccc(-c3ccn[nH]3)cc2n1` (racemic) [Example 1, rac-N4-((1R,2S,4S)-7-oxabicyclo[2.2.1]heptan-2-yl)-7-(1H-pyrazol-5-yl)quinazoline-2,4-diamine] gave a negative logarithm of the EC50 (pEC50) of 6.92.

Turning to `Nc1nc(N[C@@H]2C[C@H]3CC[C@]2(CO)O3)c2ccc(-c3ccn[nH]3)cc2n1` (racemic) [Example 8], the pEC50 was 5.43.

`Nc1nc(N2CC3CC2CO3)c2ccc(-c3cc[nH]n3)cc2n1` (racemic) [Example 9, rac-4-(2-oxa-5-azabicyclo[2.2.1]heptan-5-yl)-7-(1H-pyrazol-3-yl)quinazolin-2-amine] had a pEC50 of 6.17.

Take `Nc1cc(N[C@H]2C[C@@H]3CC[C@H]2O3)c2ccc(-c3ccn[nH]3)cc2n1` (racemic) [Example 15, rac-N4-((1R,2S,4S)-7-oxabicyclo[2.2.1]heptan-2-yl)-7-(1H-pyrazol-5-yl)quinoline-2,4-diamine]: the pEC50 is 6.60.

Turning to `Nc1cc(N[C@H]2[C@@H]3CC[C@@H](C3)[C@H]2CO)c2ccc(-c3ccn[nH]3)cc2n1` (racemic) [Example 17, rac-((1R,2S,3R,4S)-3-((2-amino-7-(1H-pyrazol-5-yl)quinolin-4-yl)amino)bicyclo[2.2.1]heptan-2-yl)methanol], the negative logarithm of the EC50 (pEC50) is 5.78.

Turning to `CC(C)(C)OC(=O)N1CCC2(CC1)CC2Nc1nc(N)nc2cc(-c3cc[nH]n3)ccc12` (racemic) [Example 27, (rac)-tert-butyl 1-((2-amino-7-(1H-pyrazol-3-yl)quinazolin-4-yl)amino)-6-azaspiro[2.5]octane-6-carboxylate], the pEC50 was 6.41.

Molecule `Nc1nc(N[C@@H]2C[C@@H]3CC[C@H]2O3)c2ccc(-c3ccn[nH]3)cc2n1` (racemic) [Example 29, rac-N4-((1R,2R,4S)-7-oxabicyclo[2.2.1]heptan-2-yl)-7-(1H-pyrazol-5-yl)quinazoline-2,4-diamine] gave a pEC50 of 6.30. This pEC50 and that of the molecule before are within 0.2 log units of each other.

Consider `Nc1cc(N[C@@H]2C[C@@H]3CC[C@H]2O3)c2ccc(-c3ccn[nH]3)cc2n1` (racemic) [Example 30, rac-N4-((1R,2R,4S)-7-oxabicyclo[2.2.1]heptan-2-yl)-7-(1H-pyrazol-5-yl)quinoline-2,4-diamine], for which the negative logarithm of the EC50 (pEC50) is 6.19.

`Nc1nc(N[C@H]2C[C@H]3O[C@@H]2C[C@@H]3O)c2ccc(-c3ccn[nH]3)cc2n1` (racemic) [Example 31A, rac-(1R,2S,4R,5S)-5-((2-amino-7-(1H-pyrazol-5-yl)quinazolin-4-yl)amino)-7-oxabicyclo[2.2.1]heptan-2-ol] had a pEC50 of 5.92.

`Nc1nc(N[C@@H]2C[C@H]3C[C@H](O)[C@@H]2O3)c2ccc(-c3ccn[nH]3)cc2n1` (racemic) [Example 31B, rac-(1R,2S,4S,6R)-6-((2-amino-7-(1H-pyrazol-5-yl)quinazolin-4-yl)amino)-7-oxabicyclo[2.2.1]heptan-2-ol] had a negative-log EC50 (pEC50) of 5.73.

Molecule `Nc1nc(N[C@H]2CC3CC2[C@@H](O)C3)c2ccc(-c3ccn[nH]3)cc2n1` (mixture of isomers) [Example 40, rac-(2S,6S)-6-((2-amino-7-(1H-pyrazol-5-yl)quinazolin-4-yl)amino)bicyclo[2.2.1]heptan-2-ol] had a pEC50 of 6.66.

Consider `Nc1nc(N[C@H]2C[C@@H]3C[C@H]2C[C@H]3O)c2ccc(-c3ccn[nH]3)cc2n1` (racemic) [Example 42], for which the pEC50 was 6.13.

The molecule `Nc1nc(N[C@H]2C[C@@H]3C[C@H]2[C@@H](O)C3)c2ccc(-c3ccn[nH]3)cc2n1` (racemic) [Example 44, rac-(1R,2S,4S,6S)-6-((2-amino-7-(1H-pyrazol-5-yl)quinazolin-4-yl)amino)bicyclo[2.2.1]heptan-2-ol] had a pEC50 of 5.63.

As for `Nc1cc(N[C@@H]2C[C@H]3C[C@@H]2[C@@H](O)C3)c2ccc(-c3ccn[nH]3)cc2n1` (racemic) [Example 46, rac-(1S,2S,4R,6R)-6-((2-amino-7-(1H-pyrazol-5-yl)quinolin-4-yl)amino)bicyclo[2.2.1]heptan-2-ol], the pEC50 is 5.88.

As for `Nc1nc(N2C[C@H]3C[C@@H]2CO3)c2ccc(-c3cc[nH]n3)cc2n1` (single isomer, unassigned) [Example 10], the pEC50 was 5.80.

In the case of `Nc1cc(N[C@H]2C3CCC(C3)[C@H]2CO)c2ccc(-c3ccn[nH]3)cc2n1` (single isomer, unassigned) [Example 18B], the pEC50 was 6.01. This pEC50 lies 0.21 log units higher than the previous one.

In the case of `Nc1cc(N[C@H]2C3CCC(C3)[C@H]2CO)c2ccc(-c3ccn[nH]3)cc2n1` (single isomer, unassigned) [Example 18], the pEC50 was 5.52. This pEC50 is 0.49 log units lower than that of the molecule before.

Turning to `Nc1cc(NC2CC3(CC(O)C3)C2)c2ccc(-c3ccn[nH]3)cc2n1` (single isomer, unassigned) [Example 26A, (Sa)-6-(2-amino-7-(1H-pyrazol-5-yl)quinolin-4-ylamino)spiro[3.3]heptan-2-ol], the negative logarithm of the EC50 (pEC50) was 7.52.

For `Nc1cc(NC2CC3(CC(O)C3)C2)c2ccc(-c3ccn[nH]3)cc2n1` (single isomer, unassigned) [Example 26B, (Ra)-6-(2-amino-7-(1H-pyrazol-5-yl)quinolin-4-ylamino)spiro[3.3]heptan-2-ol], the pEC50 is 6.60.

For `CC(C)(C)OC(=O)N1CCC2(CC1)CC2Nc1nc(N)nc2cc(-c3cc[nH]n3)ccc12` (single isomer, unassigned) [Example 28A], the pEC50 was 5.71.

As for `CC(C)(C)OC(=O)N1CCC2(CC1)CC2Nc1nc(N)nc2cc(-c3cc[nH]n3)ccc12` (single isomer, unassigned) [Example 28B], the pEC50 was 6.11.

Consider `Nc1cc(N[C@H]2C[C@@H]3C[C@@H](O)[C@H]2O3)c2ccc(-c3ccn[nH]3)cc2n1` (single isomer, unassigned) [Example 32B], for which the pEC50 is 6.60.

`Nc1nc(NC2CC23CC3)c2ccc(-c3cc[nH]n3)cc2n1` (single isomer, unassigned) [Example 36A] gave a negative logarithm of the EC50 (pEC50) of 7.07.

In turn, `Nc1nc(NC2CC23CC3)c2ccc(-c3cc[nH]n3)cc2n1` (single isomer, unassigned) [Example 36B] gave a pEC50 of 6.89. This pEC50 and that of the molecule before are within 0.2 log units of each other.

Molecule `Nc1nc(NC2CC3CC(O)C2C3)c2ccc(-c3ccn[nH]3)cc2n1` (single isomer, unassigned) [Example 41A] had a pEC50 of 6.80. This pEC50 and that of the molecule before are within 0.2 log units of each other.

`Nc1nc(NC2CC3CC(O)C2C3)c2ccc(-c3ccn[nH]3)cc2n1` (single isomer, unassigned) [Example 41B]: the pEC50 was 6.02.

`Nc1nc(N[C@H]2C[C@@H]3C[C@H]2C[C@H]3O)c2ccc(-c3ccn[nH]3)cc2n1` (single isomer, unassigned) [Example 43A] gave a pEC50 of 5.79.

Molecule `Nc1nc(N[C@H]2C[C@@H]3C[C@H]2C[C@H]3O)c2ccc(-c3ccn[nH]3)cc2n1` (single isomer, unassigned) [Example 43B] had a pEC50 of 5.95.

Turning to `Nc1nc(N[C@H]2C[C@@H]3C[C@H]2[C@@H](O)C3)c2ccc(-c3ccn[nH]3)cc2n1` (single isomer, unassigned) [Example 45A], the pEC50 was 5.67. This pEC50 lies 0.28 log units lower than the previous one.

The molecule `Nc1nc(N[C@H]2C[C@@H]3C[C@H]2[C@@H](O)C3)c2ccc(-c3ccn[nH]3)cc2n1` (single isomer, unassigned) [Example 45B] gave a pEC50 of 5.52.

Regarding `Nc1nc(N[C@@H]2C[C@H]3C[C@@H](O)C[C@H]3C2)c2ccc(-c3ccn[nH]3)cc2n1` [Example 2, (2r,3aR,5r,6aS)-5-((2-amino-7-(1H-pyrazol-5-yl)quinazolin-4-yl)amino)octahydropentalen-2-ol], the pEC50 is 6.22.
